Reference: US10517889B2, “Modulators of SMAD7 expression” (Ionis Pharmaceuticals, Inc., priority 2017, dated 2019)
Strand notation (5' to 3'): a small letter for the sugar, then the base; units joined by * are phosphorothioate-linked, units joined directly phosphodiester-linked; [ ] holds rarer units or linkages, { } end groups; capitals alone tell only the bases. k = constrained ethyl (cEt); [5mC] = 5-methylcytosine; d = 2'-deoxy (DNA)

system: human SMAD7 mRNA; test: Antisense inhibition of human SMAD7 mRNA expression in Hep3B cells by 3-10-3 cEt gapmers, 10,000 nM, electroporation (Example 2); type: cell-based; details: Hep3B cells, electroporation with 10,000 nM antisense oligonucleotide, approximately 24 hours, primer probe set RTS5062, relative to untreated control cells
Summary of the method: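 Hep3B, 20,000 cells/well; electroporation, 10,000 nM ASO; ~24 h. Readout: SMAD7 mRNA by qRT-PCR (RTS5062), RIBOGREEN-normalised; % inhibition vs untreated.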

Substance | % inhibition of SMAD7 mRNA expression [%] | % Inhibition [%]
798970 (antisense kT*k[5mC]*k[5mC]*dT*dG*d[5mC]*d[5mC]*dG*dA*dT*d[5mC]*dA*dT*kA*k[5mC]*k[5mC]) [compound 798970] | 41 | 
798971 (antisense kG*kG*kT*dG*dT*d[5mC]*d[5mC]*dT*dG*d[5mC]*d[5mC]*dG*dA*kT*k[5mC]*kA) [compound 798971] | 53 | 
798972 (antisense kT*kA*kT*d[5mC]*dA*dG*dG*dG*dT*dG*dT*d[5mC]*d[5mC]*kT*kG*k[5mC]) [compound 798972] | 18 | 
798973 (antisense kT*k[5mC]*k[5mC]*dT*dA*dT*d[5mC]*dA*dG*dG*dG*dT*dG*kT*k[5mC]*k[5mC]) [compound 798973] |  | 30
798974 (antisense k[5mC]*kT*k[5mC]*dT*dT*d[5mC]*d[5mC]*dT*dA*dT*d[5mC]*dA*dG*kG*kG*kT) [compound 798974] |  | 12
798975 (antisense kT*k[5mC]*k[5mC]*d[5mC]*d[5mC]*dT*d[5mC]*dT*dT*d[5mC]*d[5mC]*dT*dA*kT*k[5mC]*kA) [compound 798975] |  | 47
798976 (antisense kT*kG*kG*dA*dT*dT*dT*d[5mC]*dT*dG*d[5mC]*dT*dT*k[5mC]*k[5mC]*k[5mC]) [compound 798976] |  | 19
798977 (antisense kT*kG*k[5mC]*dT*dT*dG*dG*dA*dT*dT*dT*d[5mC]*dT*kG*k[5mC]*kT) [compound 798977] |  | 43
798978 (antisense kT*kT*kT*dG*dG*dT*dG*dG*dT*dG*d[5mC]*dT*dT*kG*kG*kA) [compound 798978] |  | 25
798979 (antisense kG*kT*kG*dT*dT*dT*dG*dG*dT*dG*dG*dT*dG*k[5mC]*kT*kT) [compound 798979] |  | 19
798980 (antisense kA*k[5mC]*kA*d[5mC]*dT*dG*dT*dG*dT*dT*dT*dG*dG*kT*kG*kG) [compound 798980] |  | 50
798981 (antisense k[5mC]*kA*kT*dA*d[5mC]*dA*d[5mC]*dT*dG*dT*dG*dT*dT*kT*kG*kG) [compound 798981] |  | 58
798982 (antisense k[5mC]*kT*kT*d[5mC]*dA*dT*dA*d[5mC]*dA*d[5mC]*dT*dG*dT*kG*kT*kT) [compound 798982] |  | 45
798983 (antisense k[5mC]*k[5mC]*k[5mC]*d[5mC]*dT*dT*d[5mC]*dA*dT*dA*d[5mC]*dA*d[5mC]*kT*kG*kT) [compound 798983] | 0 | 
798984 (antisense kG*k[5mC]*k[5mC]*d[5mC]*d[5mC]*d[5mC]*d[5mC]*dT*dT*d[5mC]*dA*dT*dA*k[5mC]*kA*k[5mC]) [compound 798984] | 64 | 
798985 (antisense kG*kA*k[5mC]*d[5mC]*dG*d[5mC]*d[5mC]*d[5mC]*d[5mC]*d[5mC]*d[5mC]*dT*dT*k[5mC]*kA*kT) [compound 798985] | 41 | 
798986 (antisense kG*kA*kT*dG*dA*d[5mC]*d[5mC]*dG*d[5mC]*d[5mC]*d[5mC]*d[5mC]*d[5mC]*k[5mC]*kT*kT) [compound 798986] | 34 | 
798988 (antisense kT*kG*kA*dA*dA*dT*dG*dA*dT*dG*dA*d[5mC]*d[5mC]*kG*k[5mC]*k[5mC]) [compound 798988] | 69 | 
798989 (antisense kA*kA*kG*dT*dG*dA*dA*dA*dT*dG*dA*dT*dG*kA*k[5mC]*k[5mC]) [compound 798989] | 8 | 
798990 (antisense kG*kA*k[5mC]*dA*dA*dG*dT*dG*dA*dA*dA*dT*dG*kA*kT*kG) [compound 798990] | 39 | 
798991 (antisense k[5mC]*k[5mC]*kT*dG*dA*d[5mC]*dA*dA*dG*dT*dG*dA*dA*kA*kT*kG) [compound 798991] | 23 | 
